One molecule from paper PMC7448272, “Acetylation of Surface Carbohydrates in Bacterial Pathogens Requires Coordinated Action of a Two-Domain Membrane-Bound Acyltransferase” (mBio, 2020) can be followed below.

Molecules are shown by their SMILES.

Test in all cases: acetylesterase assay, absorbance at […] nm, plate reader
Assay type in all cases: biochemical

Test [1] concerns the target T1, OafB-SPA^C-long (Salmonella enterica, UniProt A0A0H2WM30).
T1 construct: gene SPA0467; periplasmic C-terminal SGNH domain with full SGNHext, residues 377-640; codon-optimised gene; N-terminal His-MBP tag (3C-cleavable) removed; expressed in E. coli Origami
The note with it: 40 uM enzyme (methods print OafB-STM^C-term), 0.5 mM substrate final, 37 C.

Test [2] has as its target T2, OafA-STM^C-short (Salmonella enterica, UniProt Q8ZNJ3).
T2 construct: periplasmic C-terminal SGNH domain with shortened SGNHext, residues 379-609; N-terminal His-MBP tag (3C-cleavable) removed; expressed in E. coli Origami
The note with it: 10 uM enzyme, 0.5 mM substrate final, 37 C; also acetyl donor for LPS acetylation.

Test [3] addresses T3, OafA-STM^C-long (Salmonella enterica, UniProt Q8ZNJ3).
T3 construct: periplasmic C-terminal SGNH domain with full SGNHext, residues 366-609; N-terminal His-MBP tag (3C-cleavable) removed; expressed in E. coli Origami
The settings on record: 10 uM enzyme, 0.5 mM substrate final, 37 C; also acetyl donor for LPS acetylation.

In test [4] the target is T4, OafB-SPA^C-short (Salmonella enterica, UniProt A0A0H2WM30).
T4 construct: gene SPA0467; periplasmic C-terminal SGNH domain with shortened SGNHext, residues 399-640; codon-optimised gene; N-terminal His-MBP tag (3C-cleavable) removed; expressed in E. coli Origami
T4 sequence (A0A0H2WM30 entry or part of it): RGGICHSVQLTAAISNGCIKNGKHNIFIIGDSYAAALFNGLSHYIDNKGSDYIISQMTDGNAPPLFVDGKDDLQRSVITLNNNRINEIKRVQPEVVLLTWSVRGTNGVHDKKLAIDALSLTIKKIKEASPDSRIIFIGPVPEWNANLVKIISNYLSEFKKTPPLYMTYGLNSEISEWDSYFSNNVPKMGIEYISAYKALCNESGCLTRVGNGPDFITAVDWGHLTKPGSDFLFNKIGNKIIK
The settings on record: 40 uM enzyme (methods print OafB-STM^C-term), 0.5 mM substrate final, 37 C; also acetyl donor for LPS acetylation.

T1 sequence (A0A0H2WM30 entry or part of it): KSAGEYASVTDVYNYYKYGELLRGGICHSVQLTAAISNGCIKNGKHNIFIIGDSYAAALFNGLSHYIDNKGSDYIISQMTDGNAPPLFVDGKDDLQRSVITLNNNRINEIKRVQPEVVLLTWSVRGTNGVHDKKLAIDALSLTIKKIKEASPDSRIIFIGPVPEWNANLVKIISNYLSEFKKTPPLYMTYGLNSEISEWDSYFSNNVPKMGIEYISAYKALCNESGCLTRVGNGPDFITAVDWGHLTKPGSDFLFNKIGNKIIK
T3 sequence (Q8ZNJ3 entry or part of it): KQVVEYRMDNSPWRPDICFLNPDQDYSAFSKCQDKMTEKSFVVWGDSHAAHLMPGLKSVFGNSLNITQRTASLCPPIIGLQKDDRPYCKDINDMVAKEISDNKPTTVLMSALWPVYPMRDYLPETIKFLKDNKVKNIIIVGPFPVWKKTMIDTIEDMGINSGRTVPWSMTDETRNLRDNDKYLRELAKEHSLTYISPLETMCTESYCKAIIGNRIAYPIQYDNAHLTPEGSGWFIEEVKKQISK
T2 sequence (Q8ZNJ3 entry or part of it): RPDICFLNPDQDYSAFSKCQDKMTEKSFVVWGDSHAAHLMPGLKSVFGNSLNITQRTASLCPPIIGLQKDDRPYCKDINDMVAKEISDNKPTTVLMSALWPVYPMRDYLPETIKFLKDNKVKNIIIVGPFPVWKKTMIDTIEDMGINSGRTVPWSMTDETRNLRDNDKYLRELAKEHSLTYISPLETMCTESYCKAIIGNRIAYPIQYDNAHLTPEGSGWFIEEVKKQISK

For the molecule `CC(=O)Oc1ccc([N+](=O)[O-])cc1` [p-nitrophenyl acetate], the “acetylesterase assay, absorbance at 405 nm, plate reader” value in test [1], in test [2], in test [3] and in test [4] was “all constructs via their ability to hydrolyze the ester substrate p-nitrophenyl acetate (pNP-Ac)” throughout.
